# Like-named read-outs stand apart in the source and are kept apart here.
# Tests used:
# Experiment in all cases: biochemical
# Assay type in all cases: biochemical
# panel of 391 kinases [1] = target: panel of 391 kinases (Homo sapiens, UniProt Q13873); details: BMPR2, MK-28 1 µM, ATP 1 µM
# panel of 391 kinases [2] = target: panel of 391 kinases (Homo sapiens, UniProt O75116); details: ROCK2, MK-28 1 µM, ATP 1 µM
# panel of 391 kinases [3] = target: panel of 391 kinases (Homo sapiens, UniProt Q9HCP0); details: CK1g1, MK-28 1 µM, ATP 1 µM
# panel of 391 kinases [4] = target: panel of 391 kinases (Homo sapiens, UniProt P78527); details: kinase DNA-PK, compound at 1 µM, single dose in duplicates, 1 µM ATP
# panel of 391 kinases [5] = target: panel of 391 kinases (Homo sapiens, UniProt P23443); details: p70S6K/RPS6KB1, MK-28 1 µM, ATP 1 µM
# panel of 391 kinases [6] = target: panel of 391 kinases (Homo sapiens, UniProt Q9BYT3); details: STK33, MK-28 1 µM, ATP 1 µM
# panel of 391 kinases [7] = target: panel of 391 kinases (Homo sapiens, UniProt P29320); details: EPHA3, MK-28 1 µM, ATP 1 µM
# panel of 391 kinases [8] = target: panel of 391 kinases (Homo sapiens, UniProt P06493); details: MK-28 1 µM, ATP 1 µM; for remaining activity at 1 µM: read-out: % Enzyme Activity (relative to DMSO controls)
# panel of 391 kinases [9] = target: panel of 391 kinases (Homo sapiens, UniProt Q9P2K8); details: kinase EIF2AK4, compound at 1 µM, single dose in duplicates, 1 µM ATP
# panel of 391 kinases [10] = target: panel of 391 kinases (Homo sapiens, UniProt Q6VAB6); details: KSR2, MK-28 1 µM, ATP 1 µM
# panel of 391 kinases [11] = target: panel of 391 kinases (Homo sapiens, UniProt P51956); details: NEK3, MK-28 1 µM, ATP 1 µM
# panel of 391 kinases [12] = target: panel of 391 kinases (Homo sapiens, UniProt Q9UPZ9); details: LCK2/ICK, MK-28 1 µM, ATP 1 µM
# panel of 391 kinases [13] = target: panel of 391 kinases (Homo sapiens, UniProt Q96QT4); details: kinase TRPM7/CHAK1, compound at 1 µM, single dose in duplicates, 1 µM ATP
# panel of 391 kinases [14] = target: panel of 391 kinases (Homo sapiens, UniProt P49841); details: GSK3b, MK-28 1 µM, ATP 1 µM
# panel of 391 kinases [15] = target: panel of 391 kinases (Homo sapiens, UniProt O00141); details: SGK1, MK-28 1 µM, ATP 1 µM
# panel of 391 kinases [16] = target: panel of 391 kinases (Homo sapiens, UniProt P05129); details: PKCg, MK-28 1 µM, ATP 1 µM
# panel of 391 kinases [17] = target: panel of 391 kinases (Homo sapiens, UniProt P06239); details: LCK, MK-28 1 µM, ATP 1 µM
# panel of 391 kinases [18] = target: panel of 391 kinases (Homo sapiens, UniProt Q07002); details: CDK18/cyclin Y (PCTK3), MK-28 1 µM, ATP 1 µM
# panel of 391 kinases [19] = target: panel of 391 kinases (Homo sapiens, UniProt P27448); details: MARK3, MK-28 1 µM, ATP 1 µM
# panel of 391 kinases [20] = target: panel of 391 kinases (Homo sapiens, UniProt Q9Y6M4); details: CK1g3, MK-28 1 µM, ATP 1 µM
# panel of 391 kinases [21] = target: panel of 391 kinases (Homo sapiens, UniProt P52333); details: JAK3, MK-28 1 µM, ATP 1 µM
# panel of 391 kinases [22] = target: panel of 391 kinases (Homo sapiens, UniProt Q8NG66); details: NEK11, MK-28 1 µM, ATP 1 µM
# panel of 391 kinases [23] = target: panel of 391 kinases (Homo sapiens, UniProt Q8NE63); details: HIPK4, MK-28 1 µM, ATP 1 µM
# panel of 391 kinases [24] = target: panel of 391 kinases (Homo sapiens, UniProt O15264); details: P38d/MAPK13, MK-28 1 µM, ATP 1 µM
# panel of 391 kinases [25] = target: panel of 391 kinases (Homo sapiens, UniProt Q9UKI8); details: TLK1, MK-28 1 µM, ATP 1 µM
# panel of 391 kinases [26] = target: panel of 391 kinases (Homo sapiens, UniProt Q9H4A3); details: WNK1, MK-28 1 µM, ATP 1 µM
# [27] = read-out: % Enzyme Activity (relative to DMSO controls)
smiles,measurement,setting,value
CN(/N=C\c1ccc(O)c(O)c1)c1nc(-c2ccccc2)cc(-c2ccccc2)n1 [MK-28],% Enzyme Activity (relative to DMSO controls),panel of 391 kinases [1],101.00%
same,remaining activity at 1 µM,panel of 391 kinases [1]; [27],105%
same,% Enzyme Activity (relative to DMSO controls),panel of 391 kinases [2],90.11%
same,remaining activity at 1 µM,panel of 391 kinases [2]; [27],90.5%
same,% Enzyme Activity (relative to DMSO controls),panel of 391 kinases [3],78.20%
same,remaining activity at 1 µM,panel of 391 kinases [3]; [27],80%
same,% Enzyme Activity (relative to DMSO controls),panel of 391 kinases [4],102.10%
same,remaining activity at 1 µM,panel of 391 kinases [4]; [27],103%
same,% Enzyme Activity (relative to DMSO controls),panel of 391 kinases [5],97.34%
same,remaining activity at 1 µM,panel of 391 kinases [5]; [27],99%
same,% Enzyme Activity (relative to DMSO controls),panel of 391 kinases [6],91.70%
same,remaining activity at 1 µM,panel of 391 kinases [6]; [27],95.4%
same,% Enzyme Activity (relative to DMSO controls),panel of 391 kinases [7],93.74%
same,remaining activity at 1 µM,panel of 391 kinases [7]; [27],106%
same,% Enzyme Activity (relative to DMSO controls),panel of 391 kinases [8]; CDK1/cyclin A,104.81%
same,remaining activity at 1 µM,panel of 391 kinases [8]; CDK1/cyclin A,105%
same,% Enzyme Activity (relative to DMSO controls),panel of 391 kinases [8]; CDK1/cyclin B,94.54%
same,remaining activity at 1 µM,panel of 391 kinases [8]; CDK1/cyclin B,95%
same,% Enzyme Activity (relative to DMSO controls),panel of 391 kinases [8]; CDK1/cyclin E,97.74%
same,remaining activity at 1 µM,panel of 391 kinases [8]; CDK1/cyclin E,97.8%
same,% Enzyme Activity (relative to DMSO controls),panel of 391 kinases [9],87.73%
same,remaining activity at 1 µM,panel of 391 kinases [9]; [27],88.1%
same,% Enzyme Activity (relative to DMSO controls),panel of 391 kinases [10],93.44%
same,remaining activity at 1 µM,panel of 391 kinases [10]; [27],96%
same,% Enzyme Activity (relative to DMSO controls),panel of 391 kinases [11],77.47%
same,remaining activity at 1 µM,panel of 391 kinases [11]; [27],79.2%
same,% Enzyme Activity (relative to DMSO controls),panel of 391 kinases [12],99.01%
same,remaining activity at 1 µM,panel of 391 kinases [12]; [27],99.2%
same,% Enzyme Activity (relative to DMSO controls),panel of 391 kinases [13],102.70%
same,remaining activity at 1 µM,panel of 391 kinases [13]; [27],104%
same,% Enzyme Activity (relative to DMSO controls),panel of 391 kinases [14],63.98%
same,remaining activity at 1 µM,panel of 391 kinases [14]; [27],70.3%
same,% Enzyme Activity (relative to DMSO controls),panel of 391 kinases [15],103.26%
same,remaining activity at 1 µM,panel of 391 kinases [15]; [27],108%
same,% Enzyme Activity (relative to DMSO controls),panel of 391 kinases [16],101.88%
same,remaining activity at 1 µM,panel of 391 kinases [16]; [27],104%
same,% Enzyme Activity (relative to DMSO controls),panel of 391 kinases [17],116.76%
same,remaining activity at 1 µM,panel of 391 kinases [17]; [27],117%
same,% Enzyme Activity (relative to DMSO controls),panel of 391 kinases [18],109.27%
same,remaining activity at 1 µM,panel of 391 kinases [18]; [27],111%
same,% Enzyme Activity (relative to DMSO controls),panel of 391 kinases [19],98.84%
same,remaining activity at 1 µM,panel of 391 kinases [19]; [27],99%
same,% Enzyme Activity (relative to DMSO controls),panel of 391 kinases [20],76.84%
same,remaining activity at 1 µM,panel of 391 kinases [20]; [27],80.6%
same,% Enzyme Activity (relative to DMSO controls),panel of 391 kinases [21],104.48%
same,remaining activity at 1 µM,panel of 391 kinases [21]; [27],106%
same,% Enzyme Activity (relative to DMSO controls),panel of 391 kinases [22],90.54%
same,remaining activity at 1 µM,panel of 391 kinases [22]; [27],93.3%
same,% Enzyme Activity (relative to DMSO controls),panel of 391 kinases [23],97.91%
same,remaining activity at 1 µM,panel of 391 kinases [23]; [27],98.4%
same,% Enzyme Activity (relative to DMSO controls),panel of 391 kinases [24],103.63%
same,remaining activity at 1 µM,panel of 391 kinases [24]; [27],104%
same,% Enzyme Activity (relative to DMSO controls),panel of 391 kinases [25],93.00%
same,remaining activity at 1 µM,panel of 391 kinases [25]; [27],96.5%
same,% Enzyme Activity (relative to DMSO controls),panel of 391 kinases [26],103.91%
same,remaining activity at 1 µM,panel of 391 kinases [26]; [27],104%
